Source: US12590064B2, “Substituted benzamides for inhibiting perk activity” (ELI LILLY AND COMPANY, priority 2017, dated 2026)

What was measured:
[1] = target: T1, EIF2AK2 (PKR) catalytic domain (Homo sapiens, UniProt P19525); test: TR-FRET kinase assay, PKR; type: biochemical; settings: 2.5 μM ATP, 45 min; read-out: Enzyme IC50 PKR
T1 construct: Recombinant human EIF2AK2 (PKR) catalytic domain (amino acids 252-551); purchased Invitrogen, Carlsbad, CA
T1 sequence (P19525 252-551): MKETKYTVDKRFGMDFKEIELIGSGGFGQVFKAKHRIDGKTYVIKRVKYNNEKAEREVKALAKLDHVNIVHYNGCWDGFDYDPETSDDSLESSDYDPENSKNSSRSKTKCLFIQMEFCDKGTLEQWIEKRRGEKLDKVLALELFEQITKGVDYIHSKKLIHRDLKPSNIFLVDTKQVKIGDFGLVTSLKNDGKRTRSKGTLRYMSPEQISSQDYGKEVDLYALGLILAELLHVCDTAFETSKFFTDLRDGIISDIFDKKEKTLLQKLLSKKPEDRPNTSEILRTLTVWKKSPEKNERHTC
Protocol: (§1) Recombinant human EIF2AK2 (PKR) catalytic domain (amino acids 252-551), EIF2AK3 (PERK) catalytic domain (amino acids 536-1116), GFP-eIF2α substrate, and Terbium-labelled phospho-eIF2a antibody is obtained (Invitrogen, Carlsbad, CA). Express and purify HIS-SUMO-GCN2 catalytic domain (amino acids 584-1019) from E. coli. Perform TR-FRET kinase assays in the absence or presence of inhibitors in a reaction buffer consisting of 50 mM HEPES, pH 7.5, 10 mM MgCl2, 1.0 mM EGTA, and 0.01% Brij-35, and 100-200 nM GFP-eIF2α substrate. […] Add test compound, initiate the reaction by addition of enzyme, and incubate at room temperature for 45 minutes. Stop the reaction by addition of EDTA to a final concentration of 10 mM, add Terbium-labelled phospho-eIF2α antibody at a final concentration of 2 nM, and incubate for 90 minutes. Monitor the resulting fluorescence in an EnVison® Multilabel reader (PerkinElmer, Waltham, MA). Determine TR-FRET ratios and the resulting IC50 values using a 4-parameter nonlinear logistic equation as shown: Y=(A+((B−A)/(1+((C/x)^D)))) where, Y=% specific inhibition, A=Bottom of the curve, B=Top of the curve, C=absolute IC50 (concentration causing 50% inhibition), and D=hill slope.

[2] = target: T2, EIF2AK3 (PERK) catalytic domain (Homo sapiens, UniProt Q9NZJ5); test: In vitro inhibition of PERK enzyme activity (isolated), TR-FRET kinase assay; type: biochemical; settings: 1.5 μM ATP, 45 min
T2 construct: EIF2AK3 (PERK) catalytic domain (amino acids 536-1116); purchased Invitrogen, Carlsbad, CA
T2 sequence (Q9NZJ5 536-1116): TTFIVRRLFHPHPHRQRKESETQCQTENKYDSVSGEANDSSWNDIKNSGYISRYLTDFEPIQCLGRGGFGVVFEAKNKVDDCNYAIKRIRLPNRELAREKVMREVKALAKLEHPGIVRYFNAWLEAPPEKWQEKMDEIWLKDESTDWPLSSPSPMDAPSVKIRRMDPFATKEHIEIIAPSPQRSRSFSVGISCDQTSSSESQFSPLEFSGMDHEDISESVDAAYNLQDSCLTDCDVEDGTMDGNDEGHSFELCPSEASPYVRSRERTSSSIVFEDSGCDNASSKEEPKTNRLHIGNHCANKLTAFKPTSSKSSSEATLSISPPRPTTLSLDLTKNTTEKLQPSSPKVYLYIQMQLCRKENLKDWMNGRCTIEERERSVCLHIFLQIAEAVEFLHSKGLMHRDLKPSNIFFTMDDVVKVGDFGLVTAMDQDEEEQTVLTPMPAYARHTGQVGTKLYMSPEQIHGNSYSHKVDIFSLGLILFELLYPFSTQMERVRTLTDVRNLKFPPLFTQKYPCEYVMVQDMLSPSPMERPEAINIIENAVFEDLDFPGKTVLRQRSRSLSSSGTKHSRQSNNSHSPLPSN
Protocol: as §1

BxPC-3 cells = test: In vivo inhibition of pancreatic cancer (mouse xenograft model); design: species or system female athymic nude mice
Protocol: Implant female athymic nude mice (Harlan Laboratories) subcutaneously with 5×10^6 BxPC-3 cells containing matrigel on the right flank and monitor tumor growth with calipers. Initiate compound dosing when tumors reach ˜250 mm^3 and dose mice twice per day by oral gavage (8 animals per group) for 28 days. Formulate compounds in 10% Acacia containing 0.05% anti-foam or 20% Captisol in 25 mM NaPO4 buffer pH […] the compounds of Examples 5 and 9, respectively. Treat control animals with Acacia vehicle alone. Estimate tumor volumes using the formula l×w^2×(π/6), where l is the larger measured diameter and w is the smaller perpendicular diameter. Calculate percent delta T/C using the formula 100×[(T−T0)/(C−C0)] and percent regression using the formula 100×[(T−T0)/T0], where T and C are mean tumor volumes in the treated and control groups, respectively. T0 and C0 are the corresponding baseline mean tumor volumes. Convert percent delta T/C to percent delta tumor growth inhibition (TGI) using the equation, 100−percent delta T/C. For statistical analysis, transform tumor volume data to log10 scale to equalize variance across time and treatment groups. Analyze the log10 volume data with a two-way repeated measures analysis of variance (Spatial Power correlation model) by time and treatment using the MIXED procedures in the SAS software package (Version 9.3). Compare treated groups to the control group at each time point.

[3] = target: T3, PERK in GripTite 293 cells expressing GFP-eIF2α (Homo sapiens, UniProt Q9NZJ5); test: In vitro inhibition of PERK enzyme activity (whole cell), tunicamycin-induced phospho-eIF2α TR-FRET; type: cell-based; settings: 1 h pre-treatment, Tunicamycin 1 μM 2 h
T3 construct: Add Tunicamycin (1 μM) to induce PERK activity; endogenous in cells; host or cells: GripTite 293 cells expressing GFP-eIF2α
T3 sequence (Q9NZJ5 30-1116): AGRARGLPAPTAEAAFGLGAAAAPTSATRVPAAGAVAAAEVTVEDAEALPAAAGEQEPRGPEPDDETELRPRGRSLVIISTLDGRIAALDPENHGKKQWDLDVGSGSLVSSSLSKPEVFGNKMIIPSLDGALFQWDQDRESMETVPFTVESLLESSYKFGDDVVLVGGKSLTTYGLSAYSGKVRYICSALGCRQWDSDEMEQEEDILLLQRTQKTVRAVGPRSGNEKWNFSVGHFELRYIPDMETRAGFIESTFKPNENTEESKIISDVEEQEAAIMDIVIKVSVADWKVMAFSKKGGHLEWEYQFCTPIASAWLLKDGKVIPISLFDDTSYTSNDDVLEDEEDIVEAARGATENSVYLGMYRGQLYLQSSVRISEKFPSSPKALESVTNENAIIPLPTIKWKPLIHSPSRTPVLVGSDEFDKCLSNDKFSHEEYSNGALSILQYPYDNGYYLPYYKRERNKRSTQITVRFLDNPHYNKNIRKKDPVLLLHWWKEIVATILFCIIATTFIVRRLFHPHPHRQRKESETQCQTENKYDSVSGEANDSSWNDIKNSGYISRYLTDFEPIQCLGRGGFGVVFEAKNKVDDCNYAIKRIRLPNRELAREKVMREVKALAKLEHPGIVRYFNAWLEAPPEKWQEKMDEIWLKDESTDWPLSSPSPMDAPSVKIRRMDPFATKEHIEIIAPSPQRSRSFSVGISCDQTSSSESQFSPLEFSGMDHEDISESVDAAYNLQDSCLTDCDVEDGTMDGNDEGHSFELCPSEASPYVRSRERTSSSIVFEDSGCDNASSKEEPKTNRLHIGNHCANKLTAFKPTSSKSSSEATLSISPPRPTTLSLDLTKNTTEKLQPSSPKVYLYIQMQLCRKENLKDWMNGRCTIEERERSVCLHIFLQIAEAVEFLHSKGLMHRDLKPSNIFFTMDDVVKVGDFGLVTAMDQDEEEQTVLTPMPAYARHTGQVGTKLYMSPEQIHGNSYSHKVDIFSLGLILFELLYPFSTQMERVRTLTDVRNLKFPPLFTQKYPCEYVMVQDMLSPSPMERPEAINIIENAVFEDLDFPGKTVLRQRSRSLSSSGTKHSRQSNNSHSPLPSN
Protocol: Seed GripTite™ 293 cells (Invitrogen, Carlsbad, CA) expressing GFP-eIF2α at 10,000 cells per well in 384-well plates and allow to attach overnight. Pre-treat cells with test compounds for 1 hour. Add Tunicamycin (1 μM) to induce PERK activity and incubate the plates at 37° C. for 2 hours. Remove the culture media and lyse the cells in buffer consisting of 20 mM Tris-HCl, pH 7.5, 150 mM NaCl, 5 mM EDTA, 1% NP-40, 5 mM NaF, Protease inhibitors (Sigma, St. Louis, MO), Phosphatase inhibitors (Sigma, St. Louis, MO), and 2 nM Terbium-labelled anti-phospho-eIF2 antibody (Invitrogen, Carlsbad, CA). Incubate the cell lysates for 2 hours in the dark at room temperature and monitor fluorescence in an EnVison® Multilabel reader (PerkinElmer, Waltham, MA). Determine TR-FRET ratios and the resulting IC50 values from the fitted inhibition curves using un-induced (100% inhibition) and induced (0% inhibition) wells as controls.

[4] = 30 mg/kg PO BID group, day 21 post-implant (before start of treatment)
[5] = 30 mg/kg PO BID group, day 24 post-implant (before start of treatment)
[6] = 30 mg/kg PO BID group, day 32 post-implant (before start of treatment)
[7] = 30 mg/kg PO BID group, day 35 post-implant (before start of treatment)
[8] = 30 mg/kg PO BID group, day 39 post-implant (before start of treatment)
[9] = 30 mg/kg PO BID group, day 47 post-implant (before start of treatment)
[10] = 30 mg/kg PO BID group, day 52 post-implant (day of randomization and start of treatment)
[11] = 30 mg/kg PO BID, day 60 post-implant
[12] = 30 mg/kg PO BID, day 67 post-implant
[13] = 30 mg/kg PO BID, day 72 post-implant
[14] = 30 mg/kg PO BID, day 74 post-implant
[15] = 30 mg/kg PO BID, day 76 post-implant
[16] = 30 mg/kg PO BID, day 79 post-implant

IC50 [1] | IC50 [2] | SMILES | Mean tumor volume (BxPC-3 cells; [4]) | Mean tumor volume (BxPC-3 cells; [5]) | Mean tumor volume (BxPC-3 cells; [6]) | Mean tumor volume (BxPC-3 cells; [7]) | Mean tumor volume (BxPC-3 cells; [8]) | Mean tumor volume (BxPC-3 cells; [9]) | Mean tumor volume (BxPC-3 cells; [10]) | Mean tumor volume (BxPC-3 cells; [11]) | T/C (BxPC-3 cells; [11]) | TGI (Tumor Growth Inhibition) (BxPC-3 cells; [11]) | Mean tumor volume (BxPC-3 cells; [12]) | T/C (BxPC-3 cells; [12]) | TGI (Tumor Growth Inhibition) (BxPC-3 cells; [12]) | Mean tumor volume (BxPC-3 cells; [13]) | T/C (BxPC-3 cells; [13]) | TGI (Tumor Growth Inhibition) (BxPC-3 cells; [13]) | Mean tumor volume (BxPC-3 cells; [14]) | T/C (BxPC-3 cells; [14]) | other results
> 20000 nM | 2.2 ± 1.2 nM | Cc1cc(NC(=O)[C@H](O)c2cc(F)cc(F)c2)ccc1-c1cnc(N)c(C(=O)NC(C)C)c1 [Example 1, 2-amino-5-[4-[[(2R)-2-(3,5-difluorophenyl)-2-hydroxy-acetyl]amino]-2-methyl-phenyl]-N-isopropyl-pyridine-3-carboxamide] |  |  |  |  |  |  |  |  |  |  |  |  |  |  |  |  |  |  | 
> 20000 nM |  | CNC(=O)c1nc(-c2ccc(NC(=O)[C@H](O)c3cc(F)cc(F)c3)cc2C)cnc1N [Example 5, 3-amino-6-[4-[[(2R)-2-(3,5-difluorophenyl)-2-hydroxy-acetyl]amino]-2-methyl-phenyl]-N-methyl-pyrazine-2-carboxamide] | 123.9 mm^3 | 132.8 mm^3 | 143.4 mm^3 | 174.6 mm^3 | 183.8 mm^3 | 213.7 mm^3 | 252.0 mm^3 | 311.8 mm^3 | 71.5% | 28.5% | 387.8 mm^3 | 55.8% | 44.2% | 435.0 mm^3 | 52.7% | 47.3% | 487.5 mm^3 | 50.7% | TGI (Tumor Growth Inhibition) (BxPC-3 cells; [14]): 49.3%; Mean tumor volume (BxPC-3 cells; [15]): 528.8 mm^3; T/C (BxPC-3 cells; [15]): 54.5%; TGI (Tumor Growth Inhibition) (BxPC-3 cells; [15]): 45.5%; Mean tumor volume (BxPC-3 cells; [16]): 593.2 mm^3; T/C (BxPC-3 cells; [16]): 47.7%; TGI (Tumor Growth Inhibition) (BxPC-3 cells; [16]): 52.3%
 | 2.4 ± 1 nM | Cc1cc(NC(=O)[C@H](O)c2cccc(F)c2)ccc1-c1cn(C)c2ncnc(N)c12 [Example 9, (2R)—N-[4-(4-amino-7-methyl-pyrrolo[2,3-d]pyrimidin-5-yl)-3-methyl-phenyl]-2-(3-fluorophenyl)-2-hydroxy-acetamide] | 111.9 mm^3 | 134.3 mm^3 | 153.7 mm^3 | 162.6 mm^3 | 167.1 mm^3 | 196.4 mm^3 | 244.2 mm^3 | 284.8 mm^3 | 40.8% | 59.2% | 317.2 mm^3 | 27.4% | 72.6% | 380.5 mm^3 | 37.3% | 62.7% | 418.3 mm^3 | 36.0% | IC50 [3]: 28 ± 11 nM; TGI (Tumor Growth Inhibition) (BxPC-3 cells; [14]): 64.0%; Mean tumor volume (BxPC-3 cells; [15]): 480.4 mm^3; T/C (BxPC-3 cells; [15]): 45.1%; TGI (Tumor Growth Inhibition) (BxPC-3 cells; [15]): 54.9%; Mean tumor volume (BxPC-3 cells; [16]): 541.6 mm^3; T/C (BxPC-3 cells; [16]): 40.5%; TGI (Tumor Growth Inhibition) (BxPC-3 cells; [16]): 59.5%
